Several values for one entry are separate records, joined by “and”; a condition that tells them apart may be missing. Equal values may be shown once. Inconclusive results and toxic doses are left out.
Test system: BDF1 mice, P388 leukemia ip, median survival T/C
Test: NCI In Vivo Anticancer Drug Screen. Data for tumor model P388 Leukemia (intraperitoneal) in B6D2F1 (BDF1) mice
Conditions: endpoint: median survival time, higher = longer survival
In short: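 Transplantable tumour in mice; compound vs vehicle dosing; survival scored; ratio of treated to control reported.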

[1] = dose: 100.0 mg/kg/injection, schedule: Q01DX009 (ip), vehicle: Klucel (hydroxypropylcellulose) (HPC)
[2] = dose: 100.0 mg/kg/injection, schedule: Q04DX003 (ip), vehicle: Klucel (hydroxypropylcellulose) (HPC)
[3] = dose: 200.0 mg/kg/injection, schedule: Q04DX003 (ip), vehicle: Klucel (hydroxypropylcellulose) (HPC)
[4] = dose: 400.0 mg/kg/injection, schedule: Q04DX003 (ip), vehicle: Klucel (hydroxypropylcellulose) (HPC)
[5] = dose: 50.0 mg/kg/injection, schedule: Q01DX009 (ip), vehicle: saline with Tween-80
[6] = dose: 100.0 mg/kg/injection, schedule: Q01DX009 (ip), vehicle: saline with Tween-80
[7] = dose: 200.0 mg/kg/injection, schedule: Q01DX009 (ip), vehicle: saline with Tween-80
[8] = dose: 50.0 mg/kg/injection, schedule: Q01DX009 (ip), vehicle: other
[9] = dose: 200.0 mg/kg/injection, schedule: Q01DX009 (ip), vehicle: other
[10] = dose: 100.0 mg/kg/injection, schedule: Q01DX009 (ip), vehicle: saline
[11] = dose: 200.0 mg/kg/injection, schedule: Q01DX009 (ip), vehicle: saline

COC1OC(n2cnc3ncn(Cc4ccccc4)c3c2=N)C2OC(C)(C)OC12 (centres undefined)
T/C (dose: 100.0 mg/kg/injection, schedule: Q01DX001 (ip), vehicle: saline): 110 % of control | T/C (dose: 200.0 mg/kg/injection, schedule: Q01DX001 (ip), vehicle: saline): 95 % of control

c1cc2c(cc1CNC1=NCCO1)OCO2
T/C (dose: 100.0 mg/kg/injection, schedule: Q01DX001 (ip), vehicle: saline with Tween-80): 100 % of control | T/C (dose: 200.0 mg/kg/injection, schedule: Q01DX001 (ip), vehicle: saline with Tween-80): 95 % of control | T/C (dose: 400.0 mg/kg/injection, schedule: Q01DX001 (ip), vehicle: saline with Tween-80): 118 % of control

O=[N+]([O-])c1cc([N+](=O)[O-])c2nn(-c3ccccc3)[n+]([O-])c2c1
T/C (dose: 25.0 mg/kg/injection, schedule: Q01DX009 (ip), vehicle: Klucel (hydroxypropylcellulose) (HPC)): 100 % of control | T/C (dose: 50.0 mg/kg/injection, schedule: Q01DX009 (ip), vehicle: Klucel (hydroxypropylcellulose) (HPC)): 100 % of control | T/C [1]: 90 % of control | T/C [2]: 95 % of control | T/C [3]: 100 % of control | T/C [4]: 100 % of control

O=C(/C=C/c1ccc(OCc2ccccc2)cc1)c1cccc(Cl)c1
T/C [5]: 105 % of control | T/C [6]: 96 % of control | T/C [7]: 89 % of control

Cc1ccc(C(=O)C2(c3ccc(C)cc3)OC(c3ccc(C)cc3)=C(c3ccc(C)cc3)S2)cc1 (centres undefined)
T/C [8]: 104 % of control | T/C (dose: 100.0 mg/kg/injection, schedule: Q01DX009 (ip), vehicle: other): 100 % of control | T/C [9]: 100 % of control

NC(=S)N/N=C/c1ccc(N)cn1
T/C (dose: 3.13 mg/kg/injection, schedule: Q01DX009 (ip), vehicle: saline with Tween-80): 160 % of control | T/C (dose: 6.25 mg/kg/injection, schedule: Q01DX009 (ip), vehicle: saline with Tween-80): 172 % of control and 211 % of control

O=C(/C=C/c1cccc(Cl)c1)c1ccccc1
T/C [1]: 115 % of control

CN(C)C(=S)NCc1ccccc1
T/C [5]: 109 % of control | T/C [6]: 100 % of control | T/C [7]: 100 % of control

Cc1cc(C)c(NC(=O)N(CCCl)N=O)cc1C
T/C (dose: 20.0 mg/kg/injection, schedule: Q01DX009 (ip), vehicle: other): 110 % of control | T/C (dose: 45.0 mg/kg/injection, schedule: Q01DX009 (ip), vehicle: other): 100 % of control | T/C [8]: 122 % of control | T/C [5]: 105 % of control | T/C (dose: 50.0 mg/kg/injection, schedule: Q04DX003 (ip), vehicle: saline): 108 % of control | T/C (dose: 65.0 mg/kg/injection, schedule: Q01DX009 (ip), vehicle: other): 150 % of control | T/C [6]: 105 % of control | T/C (dose: 100.0 mg/kg/injection, schedule: Q04DX003 (ip), vehicle: saline): 108 % of control | T/C [9]: 122 % of control | T/C [7]: 105 % of control | T/C (dose: 200.0 mg/kg/injection, schedule: Q04DX003 (ip), vehicle: saline): 95 % of control

CCN1c2ccccc2CC(CCCN(C)C)(C(N)=O)c2ccccc21 (centres undefined)
T/C [10]: 97 % of control | T/C [11]: 98 % of control

C/C(=C\c1ccc(C)cc1)[N+](=O)[O-]
T/C (dose: 17.5 mg/kg/injection, schedule: Q01DX010 (ip), vehicle: saline): 95 % of control | T/C (dose: 35.0 mg/kg/injection, schedule: Q01DX010 (ip), vehicle: saline): 86 % of control | T/C (dose: 70.0 mg/kg/injection, schedule: Q01DX010 (ip), vehicle: saline): 90 % of control

O=Cc1[nH]c(=S)[nH]c(=O)c1Cc1ccccc1Cl
T/C [2]: 100 % of control | T/C [3]: 100 % of control | T/C [4]: 100 % of control

OC/C=[CH]\[Sn]([c]1ccccc1)([c]1ccccc1)[c]1ccccc1
T/C [5]: 89 % of control | T/C [6]: 115 % of control | T/C [7]: 106 % of control

C[C@@H]1C[C@](O)([C@@H](C)Cl)C(=O)O[C@@H]2CCN3CC=C(COC(=O)[C@]1(C)O)[C@H]23
T/C (dose: 30.0 mg/kg/injection, schedule: Q01DX010 (ip), vehicle: saline): 105 % of control

CC1(C)N=C(N)N=C(N)N1c1cccc(OCCOc2cccc(NC(=O)CBr)c2)c1
T/C (dose: 5.0 mg/kg/injection, schedule: Q01DX009 (ip), vehicle: saline): 90 % of control and 100 % of control | T/C (dose: 5.0 mg/kg/injection, schedule: Q04DX003 (ip), vehicle: saline): 100 % of control | T/C (dose: 10.0 mg/kg/injection, schedule: Q01DX009 (ip), vehicle: saline): 95 % of control and 100 % of control | T/C (dose: 10.0 mg/kg/injection, schedule: Q04DX003 (ip), vehicle: saline): 100 % of control | T/C (dose: 13.0 mg/kg/injection, schedule: Q01DX009 (ip), vehicle: saline): 104 % of control and 110 % of control | T/C (dose: 20.0 mg/kg/injection, schedule: Q04DX003 (ip), vehicle: saline): 100 % of control | T/C (dose: 45.0 mg/kg/injection, schedule: Q01DX009 (ip), vehicle: saline): 100 % of control

O/N=C/C=N/O.O/N=C/C=N/O.[Cl][Rh][Cl]
T/C (dose: 25.0 mg/kg/injection, schedule: Q01DX009 (ip), vehicle: saline): 99 % of control | T/C (dose: 50.0 mg/kg/injection, schedule: Q01DX009 (ip), vehicle: saline): 94 % of control | T/C [10]: 108 % of control | T/C [11]: 100 % of control | T/C (dose: 400.0 mg/kg/injection, schedule: Q01DX009 (ip), vehicle: saline): 91 % of control

CCCCOCN(COCCCC)C(C)Cc1ccccc1 (centres undefined)
T/C [5]: 122 % of control

Source: PubChem BioAssay AID328 (DTP/NCI, 2004)
